Experiments:
[1] = system: Bax/Bcl-2; test: ELISA of cortical Bax/Bcl-2 ratio, Aβ25-35 mouse model; type: in vivo; settings: Experiment 2, post-treatment, 1 mg/kg
Protocol: (§1) In Experiment 2, twelve mice per experimental group were administered Sc.Aβ or Aβ25-35-amyloid peptide on day 0 by i.c.v. injection. […] Animals were tested at day 7 and later.
(§2) For each of Experiments 1-4, on day 7, all animals were tested for the spontaneous alternation performance in the Y-maze test, an index of spatial working memory. On day 8 and 9, the contextual long-term memory of the animals was assessed using the step-through type passive avoidance procedure. On day 9, immediately after the retention session, animals were sacrificed by decapitation and the hippocampus and cortex dissected out. Lipid peroxidation was analyzed in the hippocampus, whereas neuroinflammation, apoptosis, amyloid burden and hyperphosphorylation of tau protein were analyzed in cortex.
(§3) Enzyme-linked immunosorbant assay (ELISA) assays: Contents in GFAP, Caspase 12, Amyloid-beta 1-40, Amyloid-beta 1-42, Total Tau, and pTau on Ser199 were analyzed by using commercial ELISA assay kit. • GFAP: Supplier: USCNK #Ref: SEA068Mu • Total Tau: Supplier: Novex #Ref: KMB7011 • pTau (S199): Supplier: Novex #Ref: KMB7041 • Amyloid beta 1-40: Supplier: Novex #Ref: KMB3481 • Amyloid beta 1-42: Supplier: Novex #Ref: KMB3441 • Caspase-12: Supplier: LSBio #Ref: LS-F11023 • BAX: Supplier: Euromedex#Ref: SEB343Mu • BCL2: Supplier: Euromedex #Ref: SEA778Mu […]

[2] = system: caspase 12; test: ELISA of cortical caspase 12, Aβ25-35 mouse model; type: in vivo; settings: Experiment 2, post-treatment, 1 mg/kg
Protocol: as §1, §2, §3

[3] = system: rat primary dopaminergic neurons (TH positive neurons); test: Survival of primary dopaminergic neurons injured by 6OHDA; type: cell-based; settings: 6OHDA 20 μM, 48 h
Protocol: Rat dopaminergic neurons were cultured as described (Schinelli S, et al. Journal of neurochemistry 50(6): 1900-1907). Briefly pregnant female rats of 15 days gestation were killed by cervical dislocation (Rats Wistar; Janvier) and the foetuses removed from the uterus. The embryonic midbrains were removed and placed in ice-cold medium of Leibovitz 15 (L15; PanBiotech, Ref P04-27055, Batch: 8810315) containing 2% of Penicillin-Streptomycin (PS; PanBiotech, ref: P06-07100, Batch: 7511015) and 1% of bovine serum albumin (BSA; PanBiotech, Ref: P06-1391100, Batch: H140904). Only the ventral portions of the mesencephalic flexure were used for the cell preparations as this region of the developing brain is rich in dopaminergic neurons. The midbrains were dissociated by trypsinization for 20 minutes (min) at 37° C. (Trypsin EDTA 1×; PanBiotech, Ref: P10-023100, batch: 1670415). The reaction was stopped by the addition of Dulbecco's modified Eagle's medium (DMEM; PanBiotech, Ref: P04-03600, Batch: 9021115) containing DNase I grade II (0.1 mg/ml; PanBiotech, Ref: P60-37780100, Batch: H140508) and 10% of fetal calf serum (FCS; Invitrogen). Cells were then mechanically dissociated by 3 passages through a 10 ml pipette. Cells were then centrifuged at 180×g for 10 min at 4° C. on a layer of BSA (3.5%) in L15 medium. The supernatant was discarded and the cell pellets were re-suspended in a defined culture medium consisting of Neurobasal (Invitrogen, Ref: 21103, Batch: 1754639) supplemented with B27 (2%; Invitrogen, ref: 17504, batch: 1799273), L-glutamine (2 mM; PanBiotech, Ref: P04-80100, Batch: 6620314) and 2% of PS, 10 ng/mL of BDNF (PanBiotech, Ref: CB-1115002, Batch: 121027) and 1 ng/mL of GDNF (PanBiotech, Ref: CB-1116001, Batch: H151004). Viable cells were counted in a Neubauer cytometer using the trypan blue exclusion test. The cells were seeded at a density of 4×10^4 cells/well in 96 well-plates (pre-coated with poly-D-lysine; Greiner, Ref: E150033VJ) and were cultured at 37° C. in a humidified air (95%)/CO2 (5%) atmosphere. Half of the medium was changed every 2 days with fresh medium. In these conditions, after 5 days of culture, astrocytes are present in the culture and release growth factor allowing neurons differentiation. Five to six percent of the neuronal cell population was dopaminergic neurons.
Briefly, on day 6 of culture, cells were pre-treated for 1 h with test compound or reference compound then intoxicated with 6OHDA (20 μM) for 48 h. The following conditions were done:
[…]_+6OHDA (20 μM, 48 h+BDNF (50 ng/ml) as a reference compound
One culture was done with 6 wells per condition. […]
The data were expressed as mean±s.e.m. […]

| Molecule | cortical Bax/Bcl-2 ratio elevation [1] | cortical caspase 12 elevation [2] | TH positive neurons ([3]; 0.3 μM) | TH positive neurons ([3]; 1 μM) | TH positive neurons ([3]; 3 μM) | TH positive neurons ([3]; 50 ng/mL) |
| --- | --- | --- | --- | --- | --- | --- |
| CCC(C/C=C/c1ccccc1)(c1ccccc1)N(C)CC1CC1 (single isomer, unassigned; (+)) [igmesine, (+)-(E)-N-(cyclopropylmethyl)-N-methyl-3,6-diphenylhex-5-en-3-amine] | fully normalized | fully normalized | 94.58 % of the control | 100.49 % of the control | 87.68 % of the control | – |
| BDNF: Brain-derived neurotrophic factor, used as a reference compound (protein, UniProt P23560 19-247, looked up) Neurotrophic factor BDNF …: APMKEANIRGQGGLAYPGVRTHGTLESVNGPKAGSRGLTSLADTFEHVIEELLDEDQKVRPNEENNKDADLYTSRVMLSSQVPLEPPLLFLLEEYKNYLDAANMSMRVRRHSDPARRGELSVCDSISEWVTAADKKTAVDMSGGTVTVLEKVPVSKGQLKQYFYETKCNPMGYTKEGCRGIDKRHWNSQCRTTQSYVRALTMDSKKRIGWRFIRIDTSCVCTLTIKRGR | – | – | – | – | – | 91.03 % of the control |
